# In patent US8563714B2, “Bridged spiro [2.4] heptane derivatives as ALX receptor and/or FPRL2 agonists” (Actelion Pharmaceuticals Ltd., priority 2009, dated 2013):
# Assays:
# [1] = molecular target: T1, human ALX receptor (Homo sapiens, UniProt P25090); assay: Intracellular calcium measurements (FLIPR), agonistic activity in HEK293-hALXR-Gα16 cells; assay type: cell-based; conditions: Fluo-4 calcium FLIPR, normalized to WKYMVm 10 nM
# T1 construct: expressed in transfected cells; host or cells: HEK293 (HEK293-hALXR-Gα16)
# T1 sequence (P25090 1-351): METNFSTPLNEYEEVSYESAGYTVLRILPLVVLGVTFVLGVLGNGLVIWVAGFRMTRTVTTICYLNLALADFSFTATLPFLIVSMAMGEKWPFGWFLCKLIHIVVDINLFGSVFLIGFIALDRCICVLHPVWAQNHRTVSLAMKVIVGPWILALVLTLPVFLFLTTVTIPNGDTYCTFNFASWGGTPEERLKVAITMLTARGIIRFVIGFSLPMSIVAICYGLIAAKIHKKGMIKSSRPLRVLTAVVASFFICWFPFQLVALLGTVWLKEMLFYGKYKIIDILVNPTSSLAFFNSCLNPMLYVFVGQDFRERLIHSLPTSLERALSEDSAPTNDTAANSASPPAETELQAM
# Procedure, shortened: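 Agonist-induced calcium flux was recorded by FLIPR (488/540 nm) in HEK293-hALXR-Gα16 cells pre-loaded with Fluo-4 AM (1 μM, 60 min, 37°C). Peak signal above baseline, after subtracting buffer addition, was expressed relative to WKYMVm at 10 nM final.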
# [2] = molecular target: T2, human FPRL2 (Homo sapiens, UniProt P25089); assay: Intracellular calcium measurements (FLIPR), agonistic activity in HEK293-hFPRL2-Gα16 cells; assay type: cell-based; conditions: Fluo-4 calcium FLIPR, normalized to GLY14-Humanin 100 nM
# T2 construct: expressed in transfected cells; host or cells: HEK293 (HEK293-hFPRL2-Gα16)
# T2 sequence (P25089 1-353): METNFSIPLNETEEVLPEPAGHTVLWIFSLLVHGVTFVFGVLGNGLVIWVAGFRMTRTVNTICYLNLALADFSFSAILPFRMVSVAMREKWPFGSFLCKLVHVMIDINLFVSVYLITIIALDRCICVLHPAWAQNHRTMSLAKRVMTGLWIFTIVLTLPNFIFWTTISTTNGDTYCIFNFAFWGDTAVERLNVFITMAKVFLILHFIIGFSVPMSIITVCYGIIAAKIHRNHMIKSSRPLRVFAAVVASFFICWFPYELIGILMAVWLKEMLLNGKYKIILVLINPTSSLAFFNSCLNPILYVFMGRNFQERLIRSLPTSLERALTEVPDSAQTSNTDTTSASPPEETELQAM
# Procedure, shortened: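 Peak values after baseline subtraction are expressed relative to 100 nM Gly14-Humanin; compounds diluted in assay buffer from 10 mM DMSO stocks.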
EC50 [1] [nM],EC50 [2] [nM],SMILES
49,462,"CN1CCN(CCCNC(=O)[C@H]2[C@H](C(=O)Nc3ncc(Br)s3)[C@@H]3C=C[C@H]2C32CC2)CC1 (racemic) [Example 265, (5R*)—N^5-(5-Bromothiazol-2-yl)-(6R*)—N^6-(3-(4-methylpiperazin-1-yl)-propyl)-(4S*,7R*)-[4,7-ethenylene-spiro[2.4]heptane]-5,6-dicarboxamide]"
0.2,2000,"O=C(NC1CCNCC1)[C@H]1[C@H](C(=O)Nc2ccc(Br)cc2)[C@@H]2C=C[C@H]1C21CC1 (racemic) [Example 3, (5R*)—N^5-(4-Bromophenyl)-(6R*)—N^6-(piperidin-4-yl)-(4S*,7R*)-[4,7-ethenylene-spiro[2.4]heptane]-5,6-dicarboxamide]"
140,835,"CC(=O)c1csc(CNC(=O)[C@H]2[C@H](C(=O)NCCCN3CCCC3)[C@H]3C=C[C@@H]2C32CC2)n1 (racemic) [Example 264, (5R*)—N^5-(4-Acetyl-thiazol-2-yl-methyl)-(6R*)—N^6-(3-pyrrolidino-propyl)-(4S*,7R*)-[4,7-ethenylene-spiro[2.4]heptane]-5,6-dicarboxamide]"
2.7,297,"O=C(N[C@@H]1CC[C@@H](CN2CCCC2)OC1)[C@H]1[C@H](C(=O)Nc2ccc(Br)cc2)[C@@H]2C=C[C@H]1C21CC1 [Example 216, (5R)—N^5-(4-Bromophenyl)-(6R)—N^6-((3R,6S)-6-(pyrrolidin-1-ylmethyl)tetrahydro-2H-pyran-3-yl)-(4S,7R)-[4,7-ethenylene-spiro[2.4]heptane]-5,6-dicarboxamide]"
13,2110,"CNCCNC(=O)[C@H]1[C@H](C(=O)Nc2ncc(Br)s2)[C@@H]2CC[C@H]1C21CC1 [Example 413, (5R)—N^5-(5-Bromothiazol-2-yl)-(6R)—N^6-(2-(N-methylamino)-ethyl)-(4S,7R)-[4,7-ethylene-spiro[2.4]heptane]-5,6-dicarboxamide]"
273,359,"CC(=O)c1csc(CNC(=O)[C@H]2[C@H](C(=O)NCCCN)[C@H]3C=C[C@@H]2C32CC2)n1 (racemic) [Example 299, (5R*)—N^5-(4-Acetyl-thiazol-2-yl-methyl)-(6R*)—N^6-(3-amino-propyl)-(4S*,7R*)-[4,7-ethenylene-spiro[2.4]heptane]-5,6-dicarboxamide]"
16,2590,"CCN1CCCC1CNC(=O)C1C(C(=O)Nc2ccc(Br)cc2)C2C=CC1C21CC1 (mixture of isomers) [Example 54, (5R*)—N^5-(4-Bromophenyl)-(6R*)—N^6-[(1-ethyl-pyrrolidin-2-yl)-methyl]-(4S*,7R*)-[4,7-ethenylene-spiro[2.4]heptane]-5,6-dicarboxamide]"
118,6590,"CC(NC(=O)C1C(C(=O)Nc2ccc(Br)cc2)C2C=CC1C21CC1)C(=O)N1CCCCC1 (mixture of isomers) [Example 82, (5R*)—N^5-(4-Bromophenyl)-(6R*)—N^6-(1-piperidin-1-yl-propan-1-on-2-yl)-(4S*,7R*)-[4,7-ethenylene-spiro[2.4]heptane]-5,6-dicarboxamide]"
290,89,"COc1ccc(CNC(=O)[C@H]2[C@H](C(=O)NCCCCN3CCCC3)[C@H]3C=C[C@@H]2C32CC2)c(F)c1F (racemic) [Example 227, (5R*)—N^5-(2,3-Difluoro-4-methoxy-phenyl-methyl)-(6R*)—N^6-(4-pyrrolidin-1-yl-butyl)-(4S*,7R*)-[4,7-ethenylene-spiro[2.4]heptane]-5,6-dicarboxamide]"
9710,3.8,"O=C(NCCCCN1CCCC1)[C@H]1[C@H](C(=O)NCCc2ccc(Cl)cc2Cl)[C@@H]2C=C[C@H]1C21CC1 [Example 391, (5R)—N^5-(2-(2,4-Dichlorophenyl)ethyl)-(6R)—N^6-(4-pyrrolidino-butyl)-(4S,7R)-[4,7-ethenylene-spiro[2.4]heptane]-5,6-dicarboxamide]"
82,3550,"CC(=O)c1csc(CNC(=O)[C@H]2[C@H](C(=O)NCCN3CCNC3=O)[C@H]3C=C[C@@H]2C32CC2)n1 (racemic) [Example 269, (5R*)—N^5-(4-Acetyl-thiazol-2-yl-methyl)-(6R*)—N^6-((2-imidazolidin-2-on)-1-yl-ethyl)-(4S*,7R*)-[4,7-ethenylene-spiro[2.4]heptane]-5,6-dicarboxamide]"
3.2,4640,"O=C(NCC1CCCO1)C1C(C(=O)Nc2ccc(Br)cc2)C2C=CC1C21CC1 (mixture of isomers) [Example 22, (5R*)—N^5-(4-Bromophenyl)-(6R*)—N^6-(2-tetrahydrofuranyl-methyl)-(4S*,7R*)-[4,7-ethenylene-spiro[2.4]heptane]-5,6-dicarboxamide]"
5730,444,"Cc1coc(NC(=O)[C@H]2[C@H](C(=O)NCCCCN3CCCC3)[C@H]3C=C[C@@H]2C32CC2)n1 (racemic) [Example 350, (5R*)—N^5-(4-Methyl-oxazol-2-yl)-(6R*)—N^6-(4-pyrrolidino-butyl)-(4S*,7R*)-[4,7-ethenylene-spiro[2.4]heptane]-5,6-dicarboxamide]"
5.4,105,"O=C(NCCCCN1CCCC1)[C@H]1[C@H](C(=O)Nc2ccc(C(F)(F)F)cc2)[C@@H]2C=C[C@H]1C21CC1 (racemic) [Example 197, (5R*)—N^5-(4-Trifluoromethyl-phenyl)-(6R*)—N^6-(4-pyrrolidin-1-yl-butyl)-(4S*,7R*)-[4,7-ethenylene-spiro[2.4]heptane]-5,6-dicarboxamide]"
3.2,1210,"CNC(=O)CCNC(=O)[C@H]1[C@H](C(=O)Nc2ccc(Br)cc2)[C@@H]2C=C[C@H]1C21CC1 (racemic) [Example 223, (5R*)—N^5-(4-Bromophenyl)-(6R*)—N^6-(3-methylamino-3-oxopropyl)-(4S*,7R*)-[4,7-ethenylene-spiro[2.4]heptane]-5,6-dicarboxamide]"
63,4610,"O=C(NC1CC1)[C@H]1[C@H](C(=O)Nc2ccc(Br)cc2)[C@@H]2C=C[C@H]1C21CC1 (racemic) [Example 73, (5R*)—N^5-(4-Bromophenyl)-(6R*)—N^6-(cyclopropyl)-(4S*,7R*)-[4,7-ethenylene-spiro[2.4]heptane]-5,6-dicarboxamide]"
748,1310,"CC(=O)CCCNC(=O)[C@H]1[C@H](C(=O)NCCCCN2CCCC2)[C@H]2C=C[C@@H]1C21CC1 (racemic) [Example 140, (5R*)—N^5-(4-oxo-pentyl)-(6R*)—N^6-(4-pyrrolidin-1-yl-butyl)-(4S*,7R*)-[4,7-ethenylene-spiro[2.4]heptane]-5,6-dicarboxamide]"
8870,330,"COc1cc(CNC(=O)[C@H]2[C@H](C(=O)NCCCCN3CCCC3)[C@H]3C=C[C@@H]2C32CC2)ccn1 (racemic) [Example 361, (5R*)—N^5-[(2-Methoxypyridin-4-yl)methyl]-(6R*)—N^6-(4-pyrrolidino-butyl)-(4S*,7R*)-[4,7-ethenylene-spiro[2.4]heptane]-5,6-dicarboxamide]"
16,5030,"COCCCNC(=O)[C@H]1[C@H](C(=O)Nc2ccc(Br)cc2)[C@@H]2C=C[C@H]1C21CC1 (racemic) [Example 53, (5R*)—N^5-(4-Bromophenyl)-(6R*)—N^6-(3-methoxy-propyl)-(4S*,7R*)-[4,7-ethenylene-spiro[2.4]heptane]-5,6-dicarboxamide]"
170,2300,"CC(=O)c1coc(CNC(=O)[C@H]2[C@H](C(=O)NCCCCN3CCCC3)[C@H]3C=C[C@@H]2C32CC2)n1 (racemic) [Example 243, (5R*)—N^5-(4-Acetyl-oxazol-2-yl-methyl)-(6R*)—N^6-(4-pyrrolidin-1-yl-butyl)-(4S*,7R*)-[4,7-ethenylene-spiro[2.4]heptane]-5,6-dicarboxamide]"

SMILES,EC50 [1] [nM],EC50 [2] [nM]
"CC(C)(C)OC(=O)N1CCC(NC(=O)C2C(C(=O)Nc3ccc(Br)cc3)C3C=CC2C32CC2)C1 (mixture of isomers) [Example 14, (5R*)—N^5-(4-Bromophenyl)-(6R*)—N^6-(N-tert-butoxycarbonyl-pyrrolidin-3-yl)-(4S*,7R*)-[4,7-ethenylene-spiro[2.4]heptane]-5,6-dicarboxamide]",1.2,1690
